In paper PMC7235904, “Is Blood a Good Indicator for Detecting Antimicrobials in Meat? Evidence for the Development of In Vivo Surveillance Methods” (Antibiotics, 2020):
Like-named read-outs stand apart in the source and are kept apart here. Marks after values point to notes of the source that are not given here.

Key:
[1] = Antimicrobial residue concentration and depletion in muscle of treated pigs within the withdrawal period (LC-MS/MS or HPLC-FLD); format: in vivo; conditions: for concentration at 2 day of withdrawal period: withdrawal period Day 2, pig; for concentration at 3 day of withdrawal period: withdrawal period Day 3, pig
Source text: To obtain samples containing antimicrobial compounds administered in vivo, 93 piglets (62 female, 31 male) with an average weight of 43.00 ± 12.79 kg were provided at treatment onset. These piglets were untreated animals that remained on the premises of the Faculty of Veterinary Sciences at the University of Zaragoza (Zaragoza, Spain) 40 days before administration of the compounds. Both during the acclimatization and withdrawal periods, animals were fed ad libitum with a special mixed feed that was free of antibiotics ([…], Spain), and water was provided from a separated, controlled water circuit. Piglets were raised in separate pens depending on the antibiotic administrated. After administration, animals were slaughtered at preset intervals within the withdrawal period in order to obtain samples containing different antimicrobial concentrations above and below the MRLs for muscle. Figure S1 indicates the slaughter days and the withdrawal periods set by the manufacturer for each antimicrobial compound administered. Between one and three piglets were slaughtered on the same day post-administration. The day of slaughter was calculated from the first day after the last antimicrobial treatment dose. […] Apart from samples containing antimicrobial compounds administered in vivo, and as a part of the sample bank, 15 of the 93 piglets were slaughtered after the acclimatization period and before treatment onset. Animals were stunned and slaughtered following the guidelines established by European Council Regulation (EC) No. 1099/2009 [39] regarding the protection of animals at the time of slaughter or killing. A penetrative captive bolt gun was used to stun the pigs, positioning it firmly against the skin, in the middle of the forehead, 2 cm above the line of the eyes, aiming towards the tail. This was followed by complete exsanguination carried out by incision in the jugular furrow at the base of the neck to sever all the major blood vessels arising from the heart. The samples obtained from them were used as blank samples for analysis. […] Samples were immediately frozen at -20 °C until analysis. For HPLC-FLD analyses, matrix solid phase dispersion (MSPD) was used. A total of 1.00 ± 0.01 g of tissue was weighed. Internal quality control samples were spiked at this point. […] It was introduced into a 25 mL reservoir and compacted. Clean-up was made with 8 mL of hexane, and quinolones were eluted with 15 mL acetonitrile/methanol (1:1) acidified with acetic acid 1%. […] The extraction procedure for LC-MS/MS determination was based on Chico et al.. […] All samples were spiked with IS at this point, and calibrants and internal quality control samples were prepared by spiking the corresponding amount of standard working solution. A total of 200 μL of 0.1 M EDTA was added, followed by 10 mL of 70% methanol, and samples were vortexed for 30 s, swung for 15 min, and finally centrifuged at 4500 rcf for 10 min at a temperature below 10 °C (Heraeus Multifuge X3 FR, Heraeus, Hanau, Germany). Then, 500 μL of supernatant was collected and diluted by adding 1500 μL of water. Extracts were filtered through 0.2 μm pore filters directly into LC-MS/MS vials. […] Mobile phase consisted of eluent A: phosphoric acid with trimethylamine buffer (pH = 3), and eluent B: acetonitrile, in isocratic mode (21:79) with a flow rate of 1 mL/min. Injected volume was 50 μL. […] The same mobile phase and gradient conditions as in SCIEX instruments were applied. Injected volume was 10 μL. Two ESI+ MRM transitions were monitored for each compound (Table S5). […] Results were represented as the mean ± standard deviation using the PRISM program (GraphPad Software, Inc., San Diego, USA). The rates of elimination (λz) of antibiotics from muscle and blood were determined by regression analysis. […]

[2] = Antimicrobial residue concentration and depletion in blood (serum) of treated pigs within the withdrawal period (LC-MS/MS); format: in vivo
Source text: To obtain samples containing antimicrobial compounds administered in vivo, 93 piglets (62 female, 31 male) with an average weight of 43.00 ± 12.79 kg were provided at treatment onset. These piglets were untreated animals that remained on the premises of the Faculty of Veterinary Sciences at the University of Zaragoza (Zaragoza, Spain) 40 days before administration of the compounds. Both during the acclimatization and withdrawal periods, animals were fed ad libitum with a special mixed feed that was free of antibiotics ([…], Spain), and water was provided from a separated, controlled water circuit. Piglets were raised in separate pens depending on the antibiotic administrated. After administration, animals were slaughtered at preset intervals within the withdrawal period in order to obtain samples containing different antimicrobial concentrations above and below the MRLs for muscle. Figure S1 indicates the slaughter days and the withdrawal periods set by the manufacturer for each antimicrobial compound administered. Between one and three piglets were slaughtered on the same day post-administration. The day of slaughter was calculated from the first day after the last antimicrobial treatment dose. […] Apart from samples containing antimicrobial compounds administered in vivo, and as a part of the sample bank, 15 of the 93 piglets were slaughtered after the acclimatization period and before treatment onset. Animals were stunned and slaughtered following the guidelines established by European Council Regulation (EC) No. 1099/2009 [39] regarding the protection of animals at the time of slaughter or killing. A penetrative captive bolt gun was used to stun the pigs, positioning it firmly against the skin, in the middle of the forehead, 2 cm above the line of the eyes, aiming towards the tail. This was followed by complete exsanguination carried out by incision in the jugular furrow at the base of the neck to sever all the major blood vessels arising from the heart. The samples obtained from them were used as blank samples for analysis. Blood was collected not only from slaughtered animals, but also from living animals on each day of slaughter. […] For quinolones in blood serum samples, a LC-MS/MS method was set up using a SCIEX Exion LC coupled to TripleQuad 6500+ triple quadrupole detector equipped with an Acquity Ultra Performance Liquid Chromatography Ethylene Bridged Hybrid (UPLC BEH) C18 (1.7 μm, 2.1 × 100 mm) column. Mobile phase consisted of eluent A: 0.1% formic acid in water, and eluent B: 0.1% formic acid in acetonitrile at a flow rate of 0.4 mL/min. […] Injected volume was 5 μL. Analytes were detected using positive electrospray ionization (ESI+) in multiple reaction monitoring (MRM) mode, and two transitions were monitored for each compound of interest (Table S4). […] The same mobile phase and gradient conditions as in SCIEX instruments were applied. […] Two ESI+ MRM transitions were monitored for each compound (Table S5). […] Results were represented as the mean ± standard deviation using the PRISM program (GraphPad Software, Inc., San Diego, USA). The rates of elimination (λz) of antibiotics from muscle and blood were determined by regression analysis. The corresponding half-lives of elimination were calculated according to the following equation: Half-life of elimination.

[3] = forequarter muscle, intramuscular, read-out: Concentration in Forequarters
[4] = hindquarter muscle, intramuscular, read-out: Concentration in Hindquarters
[5] = loin muscle, intramuscular, read-out: Concentration in Loins
[6] = over the sample bank of treated piglets

## COc1ccc(NS(=O)(=O)c2ccc(N)cc2)nn1 [Sulfamethoxypyridazine, sulfamethoxypyridazine]
[1]; both sexes, intramuscular, pig muscle, T1/2=Ln(2)/λz, read-out: T1/2 half-life of elimination (MUSCLE) (converted)
  half-life: 13.2 h
[1]; [3]
  concentration at 2 day of withdrawal period: 311 ± 22.6 ng/g
  concentration at 3 day of withdrawal period: 43 ng/g
[1]; [4]
  concentration at 2 day of withdrawal period: 351 ± 20.1 ng/g
  concentration at 3 day of withdrawal period: 40.5 ± 0.71 ng/g
[1]; [5]
  concentration at 2 day of withdrawal period: 349 ± 16.5 ng/g
  concentration at 3 day of withdrawal period: 49.5 ± 0.71 ng/g
[1]; [6]
  Maximum concentration value in Muscle: 1179.67 ± 41.88 µg/kg
  Minimum concentration value in Muscle: 14.00 ± 1.41 µg/kg
[1]; pig muscle, regression of concentration over the withdrawal period, deep intramuscular treatment
  Slope (MUSCLE): −0.5494 ± 0.0237 ^a
[2]; both sexes, intramuscular, pig blood serum, T1/2=Ln(2)/λz, read-out: T1/2 half-life of elimination (BLOOD) (converted)
  half-life: 13.2 h
[2]; [6]
  Maximum concentration value in Blood: 4098.00 ± 201.34 µg/kg
  Minimum concentration value in Blood: 23.67 ± 20.23 µg/kg
[2]; pig blood serum, regression of concentration over the withdrawal period, deep intramuscular treatment
  Slope (BLOOD): −0.5496 ± 0.02589 ^a
